# Measured values taken from ChEMBL document CHEMBL4265925, “Synthesis of 5H-pyrido[3,2-b]pyrrolizin-5-one tripentone analogs with antitumor activity” (Eur J Med Chem, 2018).
# The source made the active and inactive calls. The calls are words filed in the database; no cut-off is given here.
# Key:
# HCT-116 [1] = assay: Induction of apoptosis in human HCT116 cells assessed as late apoptotic cells at 0.3 uM measured after 48 hrs by Annexin-V-FITC/propidium iodide staining based flow cytometric method (reference value: 0%); type: functional
# HCT-116 [2] = assay: Cell cycle arrest human HCT116 cells assessed as increase in accumulation at subG0/G1 phase at 0.3 uM after 48 hrs by propidium iodide/RNase staining based FACS analysis; type: functional
# Sus scrofa [3] = species: Sus scrofa; assay: Inhibition of porcine brain tubulin polymerization at 25 uM measured every 20 secs for 60 mins
# HCT-116 [4] = assay: Induction of apoptosis in human HCT116 cells assessed as early apoptotic cells at 0.3 uM measured after 48 hrs by Annexin-V-FITC/propidium iodide staining based flow cytometric method (reference value: 0.4%); type: functional
# HCT-116 [5] = assay: Cell cycle arrest human HCT116 cells assessed as decrease in accumulation at G1 phase at 0.3 uM after 48 hrs by propidium iodide/RNase staining based FACS analysis; type: functional
# MCF7 [6] = assay: Induction of apoptosis in human MCF7 cells assessed as necrotic cells at 2 uM measured after 48 hrs by Annexin-V-FITC/propidium iodide staining based flow cytometric method (reference value: 0%); type: functional
# MCF7 [7] = assay: Cell cycle arrest in human MCF7 cells assessed as increase in accumulation at subG0/G1 phase at 2 uM after 48 hrs by propidium iodide/RNase staining based FACS analysis; type: functional
# HCT-116 [8] = assay: Induction of apoptosis in human HCT116 cells assessed as viable cells at 0.3 uM measured after 48 hrs by Annexin-V-FITC/propidium iodide staining based flow cytometric method (reference value: 99.6%); type: functional; conditions: HCT-116, 48 h, read-out: Activity
# HCT-116 [9] = assay: Antiproliferative activity against human HCT116 cells after 72 hrs by MTT assay; type: functional, cell-based; conditions: HCT-116, 72 h
# MCF7 [10] = assay: Induction of apoptosis in human MCF7 cells assessed as viable cells at 2 uM measured after 48 hrs by Annexin-V-FITC/propidium iodide staining based flow cytometric method (reference value: 99.9%); type: functional; conditions: MCF7, 48 h, read-out: Activity
# Caco-2 = assay: Cytotoxicity against human Caco2 cells assessed as reduction in cell viability at 1 to 10 uM after 72 hrs by MTT assay; type: cell-based; conditions: caco-2, 72 h
# MCF7 [11] = assay: Induction of apoptosis in human MCF7 cells assessed as late apoptotic cells at 2 uM measured after 48 hrs by Annexin-V-FITC/propidium iodide staining based flow cytometric method (reference value: 0%); type: functional
# HCT-116 [12] = assay: Cell cycle arrest human HCT116 cells assessed as increase in accumulation at G2/M phase at 0.3 uM after 48 hrs by propidium iodide/RNase staining based FACS analysis; type: functional
# HCT-116 [13] = assay: Induction of apoptosis in human HCT116 cells assessed as necrotic cells at 0.3 uM measured after 48 hrs by Annexin-V-FITC/propidium iodide staining based flow cytometric method (reference value: 0%); type: functional
# MCF7 [14] = assay: Cell cycle arrest in human MCF7 cells assessed as increase in accumulation at G2/M phase at 2 uM after 48 hrs by propidium iodide/RNase staining based FACS analysis; type: functional
# MCF7 [15] = assay: Cell cycle arrest in human MCF7 cells assessed as decrease in accumulation at S phase at 2 uM after 48 hrs by propidium iodide/RNase staining based FACS analysis; type: functional
# HCT-116 [16] = assay: Cell cycle arrest human HCT116 cells assessed as decrease in accumulation at S phase at 0.3 uM after 48 hrs by propidium iodide/RNase staining based FACS analysis; type: functional
# MCF7 [17] = assay: Cell cycle arrest in human MCF7 cells assessed as decrease in accumulation at G1 phase at 2 uM after 48 hrs by propidium iodide/RNase staining based FACS analysis; type: functional
# MCF7 [18] = assay: Antiproliferative activity against human MCF7 cells after 72 hrs by MTT assay; type: functional, cell-based; conditions: MCF7, 72 h
# MCF7 [19] = assay: Induction of apoptosis in human MCF7 cells assessed as early apoptotic cells at 2 uM measured after 48 hrs by Annexin-V-FITC/propidium iodide staining based flow cytometric method (reference value: 0.1%); type: functional
# Sus scrofa [20] = species: Sus scrofa; assay: Induction of porcine brain tubulin polymerization at 10 uM measured every 20 secs for 60 mins
# HCT-116 [21] = assay: Induction of apoptosis in human HCT116 cells assessed as necrotic cells at 0.2 uM measured after 48 hrs by Annexin-V-FITC/propidium iodide staining based flow cytometric method (reference value: 0%); type: functional
# HCT-116 [22] = assay: Cell cycle arrest human HCT116 cells assessed as increase in accumulation at subG0/G1 phase at 0.2 uM after 48 hrs by propidium iodide/RNase staining based FACS analysis; type: functional
# HCT-116 [23] = assay: Cell cycle arrest human HCT116 cells assessed as decrease in accumulation at S phase at 0.2 uM after 48 hrs by propidium iodide/RNase staining based FACS analysis; type: functional
# HCT-116 [24] = assay: Cell cycle arrest human HCT116 cells assessed as increase in accumulation at G2/M phase at 0.2 uM after 48 hrs by propidium iodide/RNase staining based FACS analysis; type: functional
# HCT-116 [25] = assay: Induction of apoptosis in human HCT116 cells assessed as late apoptotic cells at 0.2 uM measured after 48 hrs by Annexin-V-FITC/propidium iodide staining based flow cytometric method (reference value: 0%); type: functional
# HCT-116 [26] = assay: Cell cycle arrest human HCT116 cells assessed as decrease in accumulation at G1 phase at 0.2 uM after 48 hrs by propidium iodide/RNase staining based FACS analysis; type: functional
# HCT-116 [27] = assay: Induction of apoptosis in human HCT116 cells assessed as early apoptotic cells at 0.2 uM measured after 48 hrs by Annexin-V-FITC/propidium iodide staining based flow cytometric method (reference value: 0.4%); type: functional
# HCT-116 [28] = assay: Induction of apoptosis in human HCT116 cells assessed as viable cells at 0.2 uM measured after 48 hrs by Annexin-V-FITC/propidium iodide staining based flow cytometric method (reference value: 99.6%); type: functional; conditions: HCT-116, 48 h, read-out: Activity
# HCT-116 [29] = assay: Cell cycle arrest human HCT116 cells assessed as increase in accumulation at subG0/G1 phase at 0.1 uM after 48 hrs by propidium iodide/RNase staining based FACS analysis; type: functional
# HCT-116 [30] = assay: Cell cycle arrest human HCT116 cells assessed as decrease in accumulation at G1 phase at 0.1 uM after 48 hrs by propidium iodide/RNase staining based FACS analysis; type: functional
# MCF7 [31] = assay: Cell cycle arrest in human MCF7 cells assessed as increase in accumulation at G2/M phase at 3 uM after 48 hrs by propidium iodide/RNase staining based FACS analysis; type: functional
# HCT-116 [32] = assay: Induction of apoptosis in human HCT116 cells assessed as late apoptotic cells at 0.1 uM measured after 48 hrs by Annexin-V-FITC/propidium iodide staining based flow cytometric method (reference value: 0%); type: functional
# HCT-116 [33] = assay: Induction of apoptosis in human HCT116 cells assessed as early apoptotic cells at 0.1 uM measured after 48 hrs by Annexin-V-FITC/propidium iodide staining based flow cytometric method (reference value: 0.4%); type: functional
# MCF7 [34] = assay: Induction of apoptosis in human MCF7 cells assessed as necrotic cells at 3 uM measured after 48 hrs by Annexin-V-FITC/propidium iodide staining based flow cytometric method (reference value: 0%); type: functional
# HCT-116 [35] = assay: Induction of apoptosis in human HCT116 cells assessed as viable cells at 0.1 uM measured after 48 hrs by Annexin-V-FITC/propidium iodide staining based flow cytometric method (reference value: 99.6%); type: functional; conditions: HCT-116, 48 h, read-out: Activity
# MCF7 [36] = assay: Cell cycle arrest in human MCF7 cells assessed as decrease in accumulation at G1 phase at 3 uM after 48 hrs by propidium iodide/RNase staining based FACS analysis; type: functional
# MCF7 [37] = assay: Induction of apoptosis in human MCF7 cells assessed as early apoptotic cells at 3 uM measured after 48 hrs by Annexin-V-FITC/propidium iodide staining based flow cytometric method (reference value: 0.1%); type: functional
# MCF7 [38] = assay: Induction of apoptosis in human MCF7 cells assessed as viable cells at 3 uM measured after 48 hrs by Annexin-V-FITC/propidium iodide staining based flow cytometric method (reference value: 99.9%); type: functional; conditions: MCF7, 48 h, read-out: Activity
# HCT-116 [39] = assay: Cell cycle arrest human HCT116 cells assessed as increase in accumulation at G2/M phase at 0.1 uM after 48 hrs by propidium iodide/RNase staining based FACS analysis; type: functional
# MCF7 [40] = assay: Cell cycle arrest in human MCF7 cells assessed as increase in accumulation at subG0/G1 phase at 3 uM after 48 hrs by propidium iodide/RNase staining based FACS analysis; type: functional
# MCF7 [41] = assay: Cell cycle arrest in human MCF7 cells assessed as decrease in accumulation at S phase at 3 uM after 48 hrs by propidium iodide/RNase staining based FACS analysis; type: functional
# HCT-116 [42] = assay: Induction of apoptosis in human HCT116 cells assessed as necrotic cells at 0.1 uM measured after 48 hrs by Annexin-V-FITC/propidium iodide staining based flow cytometric method (reference value: 0%); type: functional
# MCF7 [43] = assay: Induction of apoptosis in human MCF7 cells assessed as late apoptotic cells at 3 uM measured after 48 hrs by Annexin-V-FITC/propidium iodide staining based flow cytometric method (reference value: 0%); type: functional
# HCT-116 [44] = assay: Cell cycle arrest human HCT116 cells assessed as decrease in accumulation at S phase at 0.1 uM after 48 hrs by propidium iodide/RNase staining based FACS analysis; type: functional
# [45] = Inhibition of sheep brain tubulin polymerization incubated at 37 degreeC for 10 mins followed by incubated at 0 degreeC for 5 mins; parameters: species or system Ovis aries
compound,measurement,setting,value
Nc1ccc(C(=O)N/N=C2/c3cc(Br)cnc3-n3cccc32)cc1,Activity,HCT-116 [1],0%
same,Activity,HCT-116 [2],Active
same,inhibition,Sus scrofa [3],inactive
same,Activity,HCT-116 [4],32.9%
same,Activity,HCT-116 [5],Active
same,Activity,MCF7 [6],0%
same,Activity,MCF7 [7],Active
same,viability at 0.3 µM,HCT-116 [8],67%
same,IC50,HCT-116 [9],0.23 µM
same,viability at 2 µM,MCF7 [10],75.2%
same,Activity,Caco-2,Non-Toxic
same,Activity,MCF7 [11],0%
same,Activity,HCT-116 [12],Active
same,Activity,HCT-116 [13],0%
same,Activity,MCF7 [14],Active
same,Activity,MCF7 [15],Active
same,Activity,HCT-116 [16],Active
same,Activity,MCF7 [17],Active
same,IC50,MCF7 [18],1.8 µM
same,Activity,MCF7 [19],24.8%
CC(=O)O[C@H]1C(=O)[C@@]2(C)[C@H]([C@H](OC(=O)c3ccccc3)[C@]3(O)C[C@H](OC(=O)[C@H](O)[C@@H](NC(=O)c4ccccc4)c4ccccc4)C(C)=C1C3(C)C)[C@]1(OC(C)=O)CO[C@@H]1C[C@@H]2O,Activity,Sus scrofa [20],Active
O=C(N/N=C1/c2cc(Br)cnc2-n2cccc21)c1ccco1,Activity,HCT-116 [21],0%
same,inhibition,Sus scrofa [3],inactive
same,Activity,HCT-116 [22],Active
same,Activity,HCT-116 [23],Active
same,Activity,MCF7 [6],0%
same,Activity,MCF7 [7],Active
same,IC50,HCT-116 [9],0.17 µM
same,Activity,HCT-116 [24],Active
same,viability at 2 µM,MCF7 [10],78.2%
same,Activity,Caco-2,Non-Toxic
same,Activity,MCF7 [11],0%
same,Activity,HCT-116 [25],0%
same,Activity,MCF7 [14],Active
same,Activity,MCF7 [15],Active
same,Activity,HCT-116 [26],Active
same,Activity,MCF7 [17],Active
same,IC50,MCF7 [18],1.61 µM
same,Activity,HCT-116 [27],31.5%
same,viability at 0.2 µM,HCT-116 [28],68.4%
same,Activity,MCF7 [19],21.8%
O=C(N/N=C1/c2cc(Br)cnc2-n2cccc21)c1ccccc1,IC50,HCT-116 [9],1.74 µM
same,Activity,Caco-2,Non-Toxic
same,IC50,MCF7 [18],14.9 µM
O=C(N/N=C1/c2cccnc2-n2cccc21)c1cccs1,IC50,HCT-116 [9],0.46 µM
same,Activity,Caco-2,Non-Toxic
same,IC50,MCF7 [18],3.15 µM
O=C(N/N=C1/c2cc(Br)cnc2-n2cccc21)c1ccc(O)cc1,IC50,HCT-116 [9],1.66 µM
same,Activity,Caco-2,Non-Toxic
same,IC50,MCF7 [18],15.6 µM
O=C(N/N=C1/c2cc(Br)cnc2-n2cccc21)c1ccncc1,Activity,HCT-116 [29],Active
same,Activity,HCT-116 [30],Active
same,Activity,MCF7 [31],Active
same,inhibition,Sus scrofa [3],inactive
same,Activity,HCT-116 [32],0%
same,Activity,HCT-116 [33],26.7%
same,Activity,MCF7 [34],0%
same,viability at 0.1 µM,HCT-116 [35],73.3%
same,Activity,MCF7 [36],Active
same,Activity,MCF7 [37],24%
same,viability at 3 µM,MCF7 [38],76%
same,Activity,HCT-116 [39],Active
same,IC50,HCT-116 [9],0.11 µM
same,Activity,Caco-2,Non-Toxic
same,Activity,MCF7 [40],Active
same,Activity,MCF7 [41],Active
same,Activity,HCT-116 [42],0%
same,IC50,MCF7 [18],3.4 µM
same,Activity,MCF7 [43],0%
same,Activity,HCT-116 [44],Active
COc1ccc(-c2csc3c2-n2cccc2C3=O)cc1O,IC50,[45],2.9 µM
O=C(N/N=C1/c2ncccc2-n2cccc21)c1ccccc1,GI50,HCT-116 [9],4.25 µM
same,GI50,MCF7 [18],20.7 µM
O=C(N/N=C1/c2cccnc2-n2cccc21)c1ccc(O)cc1,IC50,HCT-116 [9],2.54 µM
same,Activity,Caco-2,Non-Toxic
same,IC50,MCF7 [18],16.1 µM
